Key:
Assay type in all cases: cell-based
[1] = system: p21 promoter-luciferase construct in HeLa cells; assay: p21 reporter gene induction; settings: 3 micromolar, 15 hours, relative to SNDX-275
Method: (§1) The novel compounds of the present invention were tested for their ability to induce p21 gene expression using a reporter gene assay involving HeLa cells transfected with a p21 promoter-luciferase construct. The p21 promoter contained the Sp1/Sp3 binding site for HDAC but not the upstream p53 binding site. Briefly, the day before transfection, HeLa cells were seeded at 11,000 cells/well in a 96-well culture plate and incubated at 37 degrees Celsius in 5% CO2 overnight. For transfection, the medium was removed and replaced with 100 microliters/well transfection media previously prepared as follows: 5 microliters serum-free DMEM, 0.15 microliters Fugene 6 reagent, 40 ng p21-luc, 10 ng GFP were mixed gently and incubated at room temperature for 30 minutes; then 98 microliters DMEM (with 10% FBS, 1% penicillin and streptomycin) was added to the DNA:Fugene 6 reagent complex and mixed gently. After incubating the cells for 24 hours at 37 degrees Celsius in 5% CO2, fresh media and test compounds were added to the wells and the cells further incubated for 15 hours at 37 degrees Celsius in 5% CO2. Cells were lysed by adding 80 microliters/well of a cell culture lysis reagent (Promega). 50 microliters of each lysate was taken for GFP detection using an excitation wavelength of 486 nm and detection at 527 nm. 100 microliters Luciferase assay reagent (Promega) was then added to every 20 microliters cell lysate for luminometer detection. […] Induction activity for specific representative compounds can be found in Table 4.

[2] = system: klf2 promoter-luciferase construct in A204 cells; assay: klf2 reporter gene induction (p21 versus klf2 selectivity); settings: SNDX-275 p21/klf2 ratio defined as 1.0; for p21/klf2 (RP3): relative selectivity compared with SNDX-275: 3 micromolar; for p21/klf2 (RP10): relative selectivity compared with SNDX-275: 10 micromolar
Method: as §1
The novel compounds of the present invention were tested for their ability to induce klf2 gene expression using a reporter gene assay involving A204 cells transfected with a klf2 promoter-luciferase construct. The klf2 promoter contained the MEF2 binding site for HDAC3/class IIa HDAC complex. Briefly, the day before transfection, A204 cells were seeded at 11,000 cells/well in a 96-well culture plate and incubated at 37 degrees Celsius in 5% CO2 overnight. For transfection, the medium was removed and replaced with 100 microliters/well transfection media previously prepared as follows: 5 microliters serum-free DMEM, 0.15 microliters Fugene 6 reagent, 40 ng klf2-luc, 10 ng GFP were mixed gently and incubated at room temperature for 30 minutes; then 98 microliters DMEM (with 10% FBS, 1% penicillin and streptomycin) was added to the DNA:Fugene 6 reagent complex and mixed gently. After incubating the cells for 24 hours at 37 degrees Celsius in 5% CO2, fresh media and test compounds were added to the wells and the cells further incubated for 15 hours at 37 degrees Celsius in 5% CO2. Finally, 10 ng/ml TNF-α was added and the cells further incubated for 4 hours. Cells were lysed by adding 80 microliters/well of a cell culture lysis reagent (Promega). 50 microliters of each lysate was taken for GFP detection using an excitation wavelength of 486 nm and detection at 527 nm. 100 microliters Luciferase assay reagent (Promega) was then added to every 20 microliters cell lysate for luminometer detection.

[3] = system: HCT-116 colon cancer cells; assay: Antiproliferative activity, growth inhibition (MTS/WST assay); settings: Homo sapiens, 72 hour growth inhibition, read-out: GI50 HCT116
Method: The novel compounds of the present invention were tested for their ability to inhibit growth of various cancer cell lines (HeLa, MCF7, U2OS, HepG2, HL60, HCT-116) using in vitro growth inhibition assays described below.
Cells were seeded in 96-well culture plates (200 microliters/well at different seeding concentrations depending on cell type) and incubated overnight at 37 degrees Celsius in 5% CO2. After adding compound dilutions to the cells (DMSO concentration kept below 0.5%), the cells were incubated at 37 degrees Celsius in 5% CO2 for 72 hours. The effects on proliferation were determined by addition of MTS reagent (Promega) according to the manufacturer's instruction, followed by incubation for 2 hours at 37 degrees Celsius in 5% CO2, and finally recording the absorbance at 490 nm using an ELISA plate reader.
Similar to MTS assay except that the developer is the CCK-8 reagent (Dojindo) and the plate reader is set to 450 nm absorbance.
GI50 values against HCT-116 colon cancer cells for specific representative compounds can be found in Table 4.

| GI50 [3] [µM] | Compound | p21 (RP3): relative induction potency compared with SNDX-275 [1] [%] | p21/klf2 (RP3): relative selectivity compared with SNDX-275 [2] | p21/klf2 (RP10): relative selectivity compared with SNDX-275 [2] |
| --- | --- | --- | --- | --- |
| 1.4 | Nc1ccccc1NC(=O)/C=C/c1ccc(C(NCCCN2CCOCC2)C(=O)Nc2ccc(C3CC3)cc2)cc1 (stereo not drawn) [Example 4-41, (E)-N-(2-Amino-phenyl)-3-{4-[(4-cyclopropyl-phenylcarbamoyl)-(3-morpholin-4-yl-propylamino)-methyl]-phenyl}-acrylamide] | 156 | 3.5 | 2.1 |
| 2.2 | Nc1ccccc1NC(=O)/C=C/c1ccc(C(NCCN2CCOCC2)C(=O)Nc2ccc(C(F)(F)F)cn2)cc1 (stereo not drawn) [Example 4-43, (E)-N-(2-Amino-phenyl)-3-{4-[(2-morpholin-4-yl-ethylamino)-(5-trifluoromethyl-pyridin-2-ylcarbamoyl)-methyl]-phenyl}-acrylamide] | 89 | 0.9 | 2.1 |
| 0.9 | Nc1ccccc1NC(=O)/C=C/c1ccc(C(NCCN2CCOCC2)C(=O)Nc2ccc(C3CC3)cc2)cc1 (stereo not drawn) [Example 4-47, (E)-N-(2-Amino-phenyl)-3-{4-[(4-cyclopropyl-phenylcarbamoyl)-(2-morpholin-4-yl-ethylamino)-methyl]-phenyl}-acrylamide] | 79 | 1.0 | 1.8 |
| 1.4 | Nc1ccccc1NC(=O)/C=C/c1ccc(C(NCCN2CCCCC2)C(=O)Nc2ccc(OC(F)(F)F)cc2)cc1 (stereo not drawn) [Example 4-48, (E)-N-(2-Amino-phenyl)-3-{4-[(2-piperidin-1-yl-ethylamino)-(4-trifluoromethoxy-phenylcarbamoyl)-methyl]-phenyl}-acrylamide] | 130 | 1.9 | 1.9 |
| 1.4 | CN(C)CCNC(C(=O)Nc1ccc(C(F)(F)F)c(F)c1)c1ccc(/C=C/C(=O)Nc2ccccc2N)cc1 (stereo not drawn) [Example 4-49, (E)-N-(2-Amino-phenyl)-3-{4-[(2-dimethylamino-ethylamino)-(3-fluoro-4-trifluoromethyl-phenylcarbamoyl)-methyl]-phenyl}-acrylamide] | 128 | 1.5 | 1.5 |
| 3.7 | CC(C)(C)c1ccc(NC(=O)C(NCCO)c2ccc(/C=C/C(=O)Nc3ccccc3N)cc2)cc1 (stereo not drawn) [Example 4-68, (E)-N-(2-Amino-phenyl)-3-{4-[(4-tert-butyl-phenylcarbamoyl)-(2-hydroxy-ethylamino)-methyl]-phenyl}-acrylamide] | 41 | 0.5 | 1.3 |
| 1.7 | Nc1ccccc1NC(=O)/C=C/c1ccc(C(NCCO)C(=O)Nc2ccc(C(F)(F)F)cc2)cc1 (stereo not drawn) [Example 4-69, (E)-N-(2-Amino-phenyl)-3-{4-[(2-hydroxy-ethylamino)-(4-trifluoromethyl-phenylcarbamoyl)-methyl]-phenyl}-acrylamide] | 117 | 1.0 | 2.3 |
| 1 | Nc1ccccc1NC(=O)/C=C/c1ccc(C(NCCN2CCOCC2)C(=O)Nc2ccc(Br)cc2)cc1 (stereo not drawn) [Example 9-1, (E)-N-(2-Amino-phenyl)-3-{4-[(4-bromo-phenylcarbamoyl)-(2-morpholin-4-yl-ethylamino)-methyl]-phenyl}-acrylamide] | 144 | 1.0 | 2.2 |
| 0.3 | CN(C)CCNC(C(=O)Nc1ccc(Br)cc1)c1ccc(/C=C/C(=O)Nc2ccccc2N)cc1 (stereo not drawn) [Example 9-3, (E)-N-(2-Amino-phenyl)-3-{4-[(4-bromo-phenylcarbamoyl)-(2-dimethylamino-ethylamino)-methyl]-phenyl}-acrylamide] | 152 | 1.6 | 1.7 |
| 2.7 | CN(C)C(C(=O)Nc1ccc(C(F)(F)F)cc1)c1ccc(/C=C/C(=O)Nc2ccccc2N)cc1 (stereo not drawn) [Example 9-6, (E)-N-(2-Amino-phenyl)-3-{4-[dimethylamino-(4-trifluoromethyl-phenylcarbamoyl)-methyl]-phenyl}-acrylamide] | 47 | 0.9 | 1.7 |
| 2.5 | Nc1ccccc1NC(=O)/C=C/c1ccc(C(C(=O)Nc2ccc(C(F)(F)F)cc2)N2CCNCC2)cc1 (stereo not drawn) [Example 9-7, (E)-N-(2-Amino-phenyl)-3-{4-[piperazin-1-yl-(4-trifluoromethyl-phenylcarbamoyl)-methyl]-phenyl}-acrylamide] | 54 | 0.5 | 2.1 |
| 1.1 | Nc1ccccc1NC(=O)/C=C/c1ccc(C(C(=O)Nc2ccc(C(F)(F)F)cc2)N2CCOCC2)cc1 (stereo not drawn) [Example 9-10, (E)-N-(2-Amino-phenyl)-3-{4-[morpholin-4-yl-(4-trifluoromethyl-phenylcarbamoyl)-methyl]-phenyl}-acrylamide] | 80 | 1.0 | 1.6 |
| 0.9 | Nc1ccccc1NC(=O)/C=C/c1ccc(C(C(=O)Nc2ccc(C(F)(F)F)cc2)N2CCCC2)cc1 (stereo not drawn) [Example 9-11, (E)-N-(2-Amino-phenyl)-3-{4-[pyrrolidin-1-yl-(4-trifluoromethyl-phenylcarbamoyl)-methyl]-phenyl}-acrylamide] | 97 | 1.1 | 2.7 |
| 1.9 | CNC(C(=O)Nc1ccc(C(F)(F)F)cc1)c1ccc(/C=C/C(=O)Nc2ccccc2N)cc1 (stereo not drawn) [Example 9-17, (E)-N-(2-Amino-phenyl)-3-{4-[methylamino-(4-trifluoromethyl-phenylcarbamoyl)-methyl]-phenyl}-acrylamide] | 84 | 1.3 | 1.9 |
| 1 | Nc1ccccc1NC(=O)/C=C/c1ccc(C(NCCC2CCOCC2)C(=O)Nc2ccc(C(F)(F)F)cc2)cc1 (stereo not drawn) [Example 9-18, (E)-N-(2-Amino-phenyl)-3-{4-[[2-(tetrahydro-pyran-4-yl)-ethylamino]-(4-trifluoromethyl-phenylcarbamoyl)-methyl]-phenyl}-acrylamide] | 70 | 1.0 | 1.7 |

Source: patent US7795315B2, “N-(2-amino-phenyl)-amide derivatives” (Hoffman-La Roche Inc., priority 2008, dated 2010)
